Test results as given in patent US20160044927A1, “Disinfectant Formulation Comprising Calcium Hydroxide and Sodium Hypochlorite” (priority 2012, published 2016).
Like-named read-outs stand apart in the source and are kept apart here.

Legend:
[1] = system: HSV-1; settings: for Log TCID50/100 ul: preliminary
Method: Experiments: 10 μL of virus stock was mixed with 100% saturated Ca(OH)2 (Final Ca(OH)2 concentration 99%) and incubated for different lengths of time. Then the mixture was diluted and the viable number of virus (Log TCID) was measured.
99% saturated Ca(OH)2 was used to treat 2 viruses using different incubation times (5 min to 1 hr).

[2] = system: Aspergillus niger(#9642); settings: 24 hr, very spotty growth, not yet a confluence lawn, other replicates patchy lawn

| Compound | log kill ([1]; HSV-1, in 1 hr) | Log TCID50/100 ul ([1]; HSV-1, incubation 0 min) | Log TCID50/100 ul ([1]; HSV-1, incubation 5 min) | Log TCID50/100 ul ([1]; HSV-1, incubation 10 min) | Log TCID50/100 ul ([1]; HSV-1, incubation 15 min) | Log TCID50/100 ul ([1]; HSV-1, incubation 30 min) | Log TCID50/100 ul ([1]; HSV-1, incubation 60 min) | Zone of Inhibition ([2]; paste volume 0.2 ml) | Zone of Inhibition ([2]; paste volume 0.3 ml) |
| --- | --- | --- | --- | --- | --- | --- | --- | --- | --- |
| [Ca+2].[OH-].[OH-] [99% saturated Ca(OH)2, calcium hydroxide] | > 3.5 log | 6.5 Log TCID50/100 ul | 6 Log TCID50/100 ul | 5.5 Log TCID50/100 ul | 3.5 Log TCID50/100 ul | 3 Log TCID50/100 ul | <3 Log TCID50/100 ul |  |  |
| [Ca+2].[OH-].[OH-] [Ca(OH)2 paste, calcium hydroxide] |  |  |  |  |  |  |  | —, ~35≠, — mm | —, ~34≠, — mm |
